From article PMC8158265, “Inhibition of catechol-O-methyltransferase by natural pentacyclic triterpenes: structure–activity relationships and kinetic mechanism” (Journal of Enzyme Inhibition and Medicinal Chemistry, 2021) come the findings set out here.

Like-named read-outs stand apart in the source and are kept apart here.

Series [1] addresses T1, recombinant human S-COMT (Homo sapiens, UniProt P21964).
T1 construct: made in house
T1 sequence (P21964 1-221 isoform P21964-2): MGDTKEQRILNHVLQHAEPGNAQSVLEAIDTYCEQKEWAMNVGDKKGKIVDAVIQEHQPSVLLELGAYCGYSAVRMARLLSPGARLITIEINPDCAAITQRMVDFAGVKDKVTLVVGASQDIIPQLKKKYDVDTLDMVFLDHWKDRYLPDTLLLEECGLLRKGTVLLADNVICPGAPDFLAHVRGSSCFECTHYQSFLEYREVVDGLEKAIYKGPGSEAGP
The series can be described thus: COMT activity inhibition assay (enzymatic activity based fluorescence assay, 3-BTD substrate). The series is classed as biochemical.

Series [2] concerns the target T1, recombinant human S-COMT. The series can be described thus: Inhibition kinetics of human S-COMT catalysed O-methylation of 3-BTD. Type of series: biochemical. To be noted: for Vmax: 200 μM SAM; for α: global fit of mixed inhibition model; for Inhibition type: with respect to 3-BTD (catechol site).
The next series has as its system LO-2 cells. The series can be described thus: Cytotoxicity assay (CCK8). The series is classed as cell-based, human. To be noted: for IC50: Homo sapiens; for cell survival: up to 100 μM. As for the experimental part: The normal human liver-derived cell line LO-2 were grown in DMEM culture medium supplemented with 10% FBS, penicillin (100 U/mL) and streptomycin ([…]). After culturing to 80% confluence, cells were digested and exactly 100 µL of cell suspension with a cell concentration of 10^4 cells/well was seeded in 96-well plates and incubated in a 5% CO2 humidified atmosphere at 37 °C for 12 h. Then the cells were incubated with 100 μL tested compounds of varying concentrations from 0.25 to 100 μM prepared in FBS-free culture medium for 24 h. Subsequently, CCK-8 was diluted 1:10 with DMEM culture and them was added into the adherent cells and incubated in 37 °C for 2 h. The absorbance at 450 nm was measured by using the multi-mode microplate reader. Cell viability can be calculated by A/A0 × 100% (A and A0 are the absorbance of experimental group and control group, respectively).

In series [3] the test system is mitochondrial membrane potential of LO-2 cells. In words: Mitochondrial membrane potential assay (JC-10, high-content imaging). The series is classed as cell-based, human. Particulars: 24 h. As for the experimental part: The cells were cultured as described in the Section 2.3. […] To assess the mitochondria membrane potential, JC-10 (5 μg/mL) was incubated with the cells for 30 min, and Hochest (10 μg/mL) was used to stain nuclei. After removal of culture medium and rinsing three times with PBS, cell imaging and quantitative analysis were performed by high-content imaging analysis (Molecular Devices® ImageXpress Micro 4, the USA).

Where [4] appears, read: 2.0 μg/mL human S-COMT, 2.0 μM 3-BTD as substrate, 200 μM SAM, mean ± SE, read-out: IC50.
[5] abbreviates: 2.0 μg/mL human S-COMT, 2.0 μM 3-BTD as substrate, 200 μM SAM, mean ± SE.
[6] abbreviates: apparent Vmax for 3-BTD with 2.5 μM inhibitor.
[7] abbreviates: apparent Vmax for 3-BTD with 5.0 μM inhibitor.
Setting [8] is: apparent Vmax for 3-BTD with 7.5 μM inhibitor.
Where [9] appears, read: L02, LO-2 cells, 24 h, CCK8, read-out: concentration that led to a 50% decrease of cell viability.

With `CC1(C)CC[C@]2(C(=O)O)CC[C@]3(C)C(=CC[C@@H]4[C@@]5(C)CC[C@H](O)[C@@](C)(CO)[C@@H]5CC[C@]43C)[C@@H]2C1` [Compound 2, Hederagenin], the IC50 on recombinant human S-COMT [1] (setting [4]) is 8.37 ± 0.46 µM.

In the case of `C=C(C)[C@@H]1CC[C@]2(CO)CC[C@]3(C)[C@H](CC[C@@H]4[C@@]5(C)CC[C@H](O)C(C)(C)[C@@H]5CC[C@]43C)[C@@H]12` [Compound 13, Betulin], the IC50 at recombinant human S-COMT [1] was determined as 8.86 ± 0.46 µM.

As to `C[C@H]1C(=O)CC[C@@H]2[C@]1(C)CC[C@H]1[C@@]2(C)CC[C@@]2(C)[C@@H]3CC(C)(C)CC[C@]3(C)CC[C@]12C` [Compound 20, Friedelin], the IC50 entry on recombinant human S-COMT [1] (setting [5]) is reported as “N.E”.

Regarding `CC1=C(O)C(=O)C=C2C1=CC=C1[C@@]2(C)CC[C@@]2(C)[C@@H]3C[C@](C)(C(=O)O)CC[C@]3(C)CC[C@]12C` [Compound 18, Celastrol], on recombinant human S-COMT [2], the Ki was found to be 3.5 ± 0.51 µM. Also, the Vmax came to 7.91 ± 0.16 nmol/min/mg on recombinant human S-COMT [2] (setting [6]), 4.39 ± 0.10 nmol/min/mg on recombinant human S-COMT [2] (setting [7]) and 2.54 ± 0.047 nmol/min/mg at recombinant human S-COMT [2] (setting [8]). The α on recombinant human S-COMT [2] (with respect to 3-BTD) is listed as 0.20. The Inhibition type entry on recombinant human S-COMT [2] is “Mixed”. For the same molecule, the IC50 on recombinant human S-COMT [1] is 3.89 ± 0.15 µM; in the series on LO-2 cells (L02, 24 h, read-out: concentration that led to a 50% decrease of cell viability, LO-2 cells, 24 h, CCK8), 2.4 µM. In the series on LO-2 cells (LO-2 cells, CCK8), the “fold more potent cytotoxicity than tolcapone” value turned out to be 12 fold.

Regarding `C=C(C)[C@@H]1CC[C@]2(C)CC[C@]3(C)[C@H](CC[C@@H]4[C@@]5(C)CC[C@H](O)C(C)(C)[C@@H]5CC[C@]43C)[C@@H]12` [Compound 12, Lupeol], the IC50 at recombinant human S-COMT [1] (setting [4]) is 7.93 ± 0.47 µM.

For the molecule `C=C(C)[C@@H]1CC[C@]2(C(=O)O)CC[C@]3(C)[C@H](CC[C@@H]4[C@@]5(C)CC[C@@H](O)C(C)(C)[C@@H]5CC[C@]43C)[C@@H]12` [Compound 15, Epibetulinic acid], the “reduction in COMT-inhibitory potential compared to betulinic acid (11)” value at recombinant human S-COMT [1] was 50%. Also, on recombinant human S-COMT [1] (setting [4]), the IC50 is 9.38 ± 0.37 µM.

Consider `CC1(C)CCC2(C(=O)O)C(O)CC3(C)C(=CCC4C5(C)CC(O)C(O)C(C)(CO)C5CCC43C)C2C1` (stereo not shown) [Compound 4, Polygalacic acid], for which the IC50 result on recombinant human S-COMT [1] (setting [5]) is given as “N.E”.

Consider `Cc1ccc(C(=O)c2cc(O)c(O)c([N+](=O)[O-])c2)cc1` [Tolcapone, tolcapone, reference compound], for which the “reduction in membrane potential” value in series [3] (10 μM) worked out at 50%. For the same molecule, in the series on LO-2 cells (setting [9]), the IC50 is 28 to 38 µM.

In the case of `O=c1c(O)c(-c2ccc(O)c(O)c2)oc2cc(O)cc(O)c12` [Quercetin, reference compound], the IC50 on recombinant human S-COMT [1] came to 3.23 ± 0.11 µM.

As for `CC1(C)CC[C@]2(C(=O)O)CC[C@]3(C)C(=CC[C@@H]4[C@@]5(C)C[C@@H](O)[C@H](O)C(C)(C)[C@@H]5CC[C@]43C)[C@@H]2C1` [Compound 3, Masline acid], the IC50 at recombinant human S-COMT [1] was found to be 10.6 ± 0.96 µM.

Turning to `CC1(C)CC[C@]2(C(=O)O)CC[C@]3(C)C(=CC[C@@H]4[C@@]5(C)CC[C@H](O)C(C)(C)[C@@H]5CC[C@]43C)[C@@H]2C1` [Compound 1, Oleanic acid], the “effect on MMP” value in series [3] (at 50 μM) is “did not display a decrease of MMP”. The maximum rate (Vmax) on recombinant human S-COMT [2] (setting [6]) was found to be 8.45 ± 0.29 nmol/min/mg; at recombinant human S-COMT [2] (setting [7]), 4.56 ± 0.084 nmol/min/mg; on recombinant human S-COMT [2] (setting [8]), 2.20 ± 0.030 nmol/min/mg. Moreover, the Inhibition type entry at recombinant human S-COMT [2] is reported as “Mixed”. The IC50 in the series on LO-2 cells (setting [9]) was above 100 µM. The molecule further displayed a cell survival with LO-2 cells (LO-2 cells, CCK8) of 95%.

On to `Cc1c(O)c(O)cc2c1CC=C1C2(C)CCC2(C)C3CC(C)(C(=O)O)CCC3(C)CCC12C` (stereo not shown) [Compound 19, Hydrocelastrol], for which the IC50 at recombinant human S-COMT [1] was 12.6 ± 0.73 µM.

As for `C[C@H]1[C@H](C)CC[C@]2(C)CC[C@]3(C)C(=CC(=O)[C@@H]4[C@@]5(C)CC[C@@H](O)[C@](C)(C(=O)O)[C@@H]5CC[C@]43C)[C@H]12` [Compound 10, 11-Keto-β-Boswellic acid], the IC50 entry on recombinant human S-COMT [1] (setting [5]) is on record as “N.E”.

As for `C=C(C)[C@@H]1CC[C@]2(C(=O)O)CC[C@]3(C)[C@H](CC[C@@H]4[C@@]5(C)CCC(=O)C(C)(C)[C@@H]5CC[C@]43C)[C@@H]12` [Compound 17, Betulonic acid], on recombinant human S-COMT [1] (setting [4]), the IC50 was 11.1 ± 0.51 µM.

Consider `C[C@H]1[C@H](C)CC[C@]2(C)CC[C@]3(C)C(=CC[C@@H]4[C@@]5(C)CC[C@@H](O)[C@](C)(C(=O)O)[C@@H]5CC[C@]43C)[C@H]12` [Compound 9, β-Boswellic acid], for which the IC50 at recombinant human S-COMT [1] (setting [4]) is 14.2 ± 0.87 µM.

In the case of `Oc1cc(O)c2c(c1)O[C@H](c1ccc(O)c(O)c1)[C@H](O)C2` [Epicatechin, reference compound], the IC50 on recombinant human S-COMT [1] (setting [4]) worked out at 9.57 ± 0.55 µM.

In the case of `CC1(C)[C@@H](O)CC[C@]2(C)[C@H]3C(=O)C=C4[C@@H]5C[C@@](C)(C(=O)O)CC[C@]5(C)CC[C@@]4(C)[C@]3(C)CC[C@@H]12` [Compound 6, Glycyrrhetinic acid], at recombinant human S-COMT [1] (setting [4]), the IC50 is 115 ± 11.6 µM.

In the case of `C=C(C)[C@@H]1CC[C@]2(C=O)CC[C@]3(C)[C@H](CC[C@@H]4[C@@]5(C)CC[C@H](O)C(C)(C)[C@@H]5CC[C@]43C)[C@@H]12` [Compound 14, Betulinic aldehyde], the IC50 on recombinant human S-COMT [1] (setting [4]) was determined as 10 ± 0.63 µM.

`C=C(C)[C@@H]1CC[C@]2(C(=O)O)CC[C@]3(C)[C@H](CC[C@@H]4[C@@]5(C)CC[C@H](O)[C@@](C)(CO)[C@@H]5CC[C@]43C)[C@@H]12` [Compound 16, 23-Hydroxybetulinic acid]: at recombinant human S-COMT [1] (setting [4]), the IC50 stood at 31.4 ± 2.42 µM.

`C[C@H]1[C@H](C)CC[C@]2(C(=O)O)CC[C@]3(C)C(=CC[C@@H]4[C@@]5(C)CC[C@H](O)C(C)(C)[C@@H]5CC[C@]43C)[C@H]12` [Compound 7, Ursolic acid]: at recombinant human S-COMT [1] (setting [4]), the IC50 came to 15.1 ± 1.35 µM. Also, on recombinant human S-COMT [1] (ratio of IC50 values), the “fold lower inhibitory potency than oleanolic acid (1)” value is around 3 fold.

For `CCN(CC)C(=O)/C(C#N)=C/c1cc(O)c(O)c([N+](=O)[O-])c1` [Entacapone, entacapone, reference compound], the IC50 with LO-2 cells (setting [9]) is above 100 µM.

As for `C[C@H]1[C@H](C)CC[C@]2(C(=O)O)CC[C@]3(C)C(=CC[C@@H]4[C@@]5(C)C[C@@H](O)[C@H](O)[C@@](C)(CO)[C@@H]5CC[C@]43C)[C@H]12` [Compound 8, Asiatic acid], the IC50 on recombinant human S-COMT [1] came to 43.1 ± 5.92 µM.

For `CC1(C)CC[C@]2(C)CC[C@]3(C)C(=CC[C@@H]4[C@@]5(C)CC[C@@H](O)[C@](C)(C(=O)O)[C@@H]5CC[C@]43C)[C@@H]2C1` [Compound 5, α-Boswellic acid], the IC50 on recombinant human S-COMT [1] (setting [4]) is 29.2 ± 1.65 µM.

With `C=C(C)[C@@H]1CC[C@]2(C(=O)O)CC[C@]3(C)[C@H](CC[C@@H]4[C@@]5(C)CC[C@H](O)C(C)(C)[C@@H]5CC[C@]43C)[C@@H]12` [Compound 11, Betulinic acid], the Vmax amounted to 9.97 ± 0.20 nmol/min/mg at recombinant human S-COMT [2] (setting [6]), 8.95 ± 0.22 nmol/min/mg on recombinant human S-COMT [2] (setting [7]) and 6.06 ± 0.24 nmol/min/mg at recombinant human S-COMT [2] (setting [8]). The α on recombinant human S-COMT [2] (with respect to 3-BTD) amounted to 0.39. The Ki on recombinant human S-COMT [2] (global fit, with respect to 3-BTD, saturated SAM, read-out: Ki) was determined as 5.6 ± 0.33 µM. The Inhibition type result on recombinant human S-COMT [2] was “Mixed”. Also, the results for the IC50 on recombinant human S-COMT [1] (setting [4]) and with LO-2 cells (setting [9]) were 5.07 ± 0.087 µM and above 100 µM, respectively. Moreover, in the series on LO-2 cells (LO-2 cells, CCK8), the cell survival was found to be 95%.

Usually Ki stands for a measure of affinity in units of concentration, obtained from inhibition or displacement. What is called Vmax is the top rate of the reaction or transport when substrate is in excess.
